Reference: ChEMBL document CHEMBL3988442, “University of Dundee, Small-Polar-MMV Screening Library” (2021)

Key:
[1] = microbe, parasite or virus in culture; details: Mycobacterium tuberculosis, 96 h, read-out: pIC50 (converted)
[2] = microbe, parasite or virus in culture; details: Mycobacterium tuberculosis, 72 h, read-out: pIC50 (converted)

Row | Compound | IC50 [1] [µM] | IC50 [2] [µM]
1 | CN(C)S(=O)(=O)NC(c1ccccc1)c1ccccc1 | > 501 | 195
2 | COc1ccc(CCN)c(OC)c1OC | 55.6 | 36.1
3 | CN(Cc1ccco1)C(=O)c1cccc(C#N)c1 | > 501 | > 501
4 | O=C(CNC1CC1)NCCc1ccc(F)cc1 | 63.6 | 31.5
5 | CN(C)S(=O)(=O)c1cccc(CN2CCCC2)c1 | > 501 | > 501
6 | CNS(=O)(=O)c1ccc(C(=O)Nc2ccc(F)cc2)o1 | > 501 | > 501
7 | Cc1ccc(C(CN)N2CCCC2)o1 (configuration not stated) | > 501 | 101
8 | O=C1CCC(Nc2nc(-c3ccccc3)ns2)CN1 (configuration not stated) | 286 | > 501
9 | COc1cccc(S(=O)(=O)CCN(C)CCO)c1 | 352 | 109
10 | CC(NCc1cccc2c1OCCO2)c1ccncc1 (configuration not stated) | 153 | 99.1
11 | O=C(Nc1cccc(CO)n1)Nc1ccccc1Cl | > 501 | 246
12 | Nc1cc(-c2cccnc2)on1 | > 501 | 284
13 | COc1cccc(-c2ccc(CNS(N)(=O)=O)cc2)c1 | 283 | 159
14 | COc1cc(CN)cc(Br)c1OC | > 501 | 78.5
15 | Nc1nccnc1C(=O)NCc1ccccc1 | > 501 | 294
16 | COC(CNC(=O)N1CCSCC1)c1ccc(F)cc1 (configuration not stated) | > 501 | > 501
17 | CCc1nc(C)c(C(=O)NCC2CCS(=O)(=O)CC2)o1 | > 501 | > 501
18 | OCCCn1nnc(-c2ccccc2)n1 | 120 | 158
19 | Cc1cnc(C(=O)NCCCc2ccccn2)cn1 | > 501 | 111
20 | C=C(Br)CN1CCN(CCNC(=O)C2CCC2)CC1 | > 501 | 278
21 | CNC(=O)C(C)(C)Oc1cccc(Cl)c1 | > 501 | > 501
22 | NC(=O)CSc1nc(-c2ccc(Br)cc2)c[nH]1 | 260 | 160
23 | COc1cccc(-n2nnc(C(=O)NC3CC3)c2C)c1 | 209 | 232

Row | Compound | IC50 [1] [µM] | IC50 [2] [µM]
24 | Cc1ccccc1OCC(O)CN1CCC[C@@H]1CO (some centres not stated) | > 501 | 280
25 | CC(NC(=O)CNc1ccccc1F)c1ccco1 (configuration not stated) | 4.24 | 51.7
26 | COc1cccc(N2CCC(CN)C2)c1 (configuration not stated) | 290 | 69.7
27 | COc1cc(C(=O)NC[C@@H](O)c2ccc(C)cc2)on1 | > 501 | 488
28 | NC1CCN(c2ncccc2F)C1 (configuration not stated) | > 501 | 462
29 | CCc1nnc(CN2CCOC3(CCCC3)C2)o1 | > 501 | > 501
30 | CC(C)(C)OC(=O)NC1CC2(CNC2)C1 | > 501 | 244
31 | CCCNC(=O)CNc1cc(F)c(OC)c(F)c1 | 326 | 166
32 | CC(=O)NCCCNCc1cccc(C#N)c1 | > 501 | > 501
33 | NCCCN1CCN(c2ccccc2F)CC1 | > 501 | > 501
34 | CC(=O)NCc1ccc(C(=O)CSc2ccccn2)s1 | > 501 | > 501
35 | CSCc1ccc(C(=O)N2CC(CC(N)=O)C2)cc1 | > 501 | > 501
36 | NCc1noc(-c2cccc(Br)c2)n1 | > 501 | 127
37 | Fc1ccc(CSc2nnnn2CC2CCCO2)cc1 (configuration not stated) | 80.8 | 39
38 | C[C@@H](CO)Nc1ncc(Cl)cc1Br | > 501 | 291
39 | CCc1cc(CNC(=O)c2ccc(F)c(F)c2)[nH]n1 | 102 | 175
40 | COc1c(Cl)cc(NC(=O)C2COCCN2)cc1Cl (configuration not stated) | > 501 | 200
41 | CN(C)S(=O)(=O)NCC(O)c1ccc(Cl)c(F)c1 (configuration not stated) | > 501 | 131
42 | COc1cccc(SCC(=O)N2CCOC(C)C2)c1 (configuration not stated) | > 501 | > 501
43 | CCc1ccc(C(=O)NC(C)c2cccnc2)o1 (configuration not stated) | > 501 | > 501
44 | COCCCNC(=O)C1=Cc2ccccc2OC1 | 115 | 119
45 | O=C(NCCN1CCCC1)c1csc(-c2ccco2)n1 | 224 | 201
46 | CN(C)c1cc(CNc2ccc(C#N)cn2)ccn1 | 453 | 205

Row | Compound | IC50 [1] [µM] | IC50 [2] [µM]
47 | COc1ccc(CNC(=O)CCC2CCCO2)cn1 (configuration not stated) | > 501 | 91.5
48 | CCN(CC1CCOC1)C(=O)c1cc(I)c[nH]1 (configuration not stated) | > 501 | 212
49 | O=S1(=O)CCCN(Cc2ccc(Br)c(F)c2)CC1 | 242 | 386
50 | NCC(O)c1ccc(Cl)s1 (configuration not stated) | 290 | 241
51 | Cc1csc(CNC(=O)c2ccco2)n1 | > 501 | > 501
52 | CCN1C[C@H](NC(=O)c2ccc(Cl)s2)[C@@H](OC)C1 | > 501 | 137
53 | OCCOCCNCC(O)COCc1ccccc1Cl (configuration not stated) | > 501 | > 501
54 | Cc1ccc(C(=O)NCc2ccnc(N(C)C)c2)s1 | > 501 | 273
55 | Cc1cc2c(cc1S(=O)(=O)N1CCCC(N)C1)OCO2 (configuration not stated) | > 501 | 261
56 | CCNC1=NN=C(c2ccc3c(c2)OCCCO3)CS1 | > 501 | 274
57 | CS(=O)(=O)N1CCC(COCc2ccccc2)C1 (configuration not stated) | 165 | 301
58 | CC(C)Sc1nnc(-c2cccnc2)o1 | 219 | 8.8
59 | Cc1cc(C(=O)NCc2ccc(F)cc2)[nH]n1 | 132 | 28
60 | Cn1c(SCCCO)nnc1-c1ccccc1F | 279 | 275
61 | CN1N=C(C(=O)NCc2ccc(Cl)cc2)CCC1=O | 38.8 | 26.9
62 | CCn1nnnc1SCc1cc(C#N)ccc1F | 87.5 | 42.7
63 | Cc1nc(CNC(=O)CC2=CCCCC2)no1 | > 501 | > 501
64 | Cc1cccc(N2CCN(CCCN)CC2)c1 | > 501 | > 501
65 | COc1ccc(CCN)cc1F | 247 | 304
66 | CNCCc1ccccc1OC | 124 | 74.4
67 | CCN(CC)S(=O)(=O)CC(=O)Nc1ccc(F)c(C)c1 | 265 | 252
68 | Cc1nc(CNC(=O)c2cc(C3CC3)[nH]n2)cs1 | > 501 | > 501
69 | COC(=O)c1ccc(NCC(=O)NC(N)=O)cc1 | 58.3 | 85.4

Row | Compound | IC50 [1] [µM] | IC50 [2] [µM]
70 | CC(Sc1nnc[nH]1)C(=O)Nc1ccc(C#N)cc1 (configuration not stated) | > 501 | > 501
71 | COc1ccc(NC(=O)c2ccc(S(N)(=O)=O)o2)cc1 | > 501 | > 501
72 | CCNC1=NN=C(c2ccc(OC)c(F)c2)CS1 | 134 | 137
73 | CC(C)OCCS(=O)(=O)N(C)Cc1ccco1 | 104 | 110
74 | CCC(CC)C(CN)N(C)C (configuration not stated) | 204 | 78.1
75 | CC(c1nc(-c2ccccn2)no1)N1CCSCC1 (configuration not stated) | 115 | 86.8
76 | O=C(NC1CCc2ccc(F)cc21)c1c[nH]nn1 (configuration not stated) | 399 | > 501
77 | CN1N=C(C(=O)NCc2csc(Br)c2)CCC1=O | 51 | 147
78 | COc1ccc(Br)c(CN)c1 | 184 | 116
79 | Cc1nc(-c2c[nH]c(C(=O)N3CCCC3)c2)cs1 | 427 | 241
80 | O=C(NCC(O)c1ccc(Cl)cc1)Nc1ccccn1 (configuration not stated) | > 501 | 106
81 | CCCNC(=O)c1cc(Br)c[nH]1 | > 501 | > 501
82 | COc1ccc(CN2CCCNCC2)cc1 | 163 | 258
83 | CN(C)CCOc1ccccc1CN | > 501 | > 501
84 | CCCOc1cccc(NC(=O)C(C)n2cncn2)c1 (configuration not stated) | 331 | 370
85 | NC(=O)c1ccsc1NC(=O)CCN1CCCCC1 | > 501 | 495
86 | c1ccc(-c2noc(CN3CCCC3)n2)cc1 | 82.1 | 63.9
87 | O=C(CSCc1ccc(Cl)s1)N1CCOCC1 | 286 | 304
88 | CCC1(CO)CCCN(CCn2cc(Cl)cn2)C1 (configuration not stated) | 144 | 138
89 | CCOc1ncccc1CNC(=O)c1[nH]ncc1Br | > 501 | > 501
90 | O=C(NC1=NCCS1)c1sccc1C1CC1 | 398 | 232
91 | CC1CC(=O)NCCN1 (configuration not stated) | > 501 | > 501
92 | NCc1cnn(-c2ccc(Br)cc2)c1 | 196 | 147

Row | Compound | IC50 [1] [µM] | IC50 [2] [µM]
93 | COCCNc1ccc(C#N)cc1 | 280 | > 501
94 | CC(N)c1nc(-c2ccc3c(c2)OCO3)c[nH]1 (configuration not stated) | > 501 | > 501
95 | CCOC(=O)c1ccc(N2CCC(CCO)CC2)nc1 | 198 | 84
96 | CN(C)c1nc(-c2ccc3c(c2)CCC(=O)N3)cs1 | 201 | 120
97 | CN(C)c1ncccc1CNS(=O)(=O)c1ccccc1 | > 501 | > 501
98 | CN(C)C(=O)CCN1CCCC1c1ccsc1 (configuration not stated) | > 501 | 196
99 | O=C(COCC(F)(F)F)NCc1cn2ccccc2n1 | > 501 | 92.3
100 | O=C(NC1CCCCC1)c1ccc(CO)cc1 | 143 | 161
101 | O=C(COC(=O)c1cccs1)c1ccc[nH]1 | 211 | 429
102 | NCc1ccc(OC2CCCCC2)nc1 | > 501 | > 501
103 | NCc1ccncc1OCc1ccccc1 | > 501 | 134
104 | O=C1c2ccccc2OCC1CN1CCOCC1 (configuration not stated) | > 501 | 266
105 | NC1CCN(c2ncccc2Cl)C1 (configuration not stated) | 217 | 135
106 | COCC(C)Nc1cccc(F)c1C#N (configuration not stated) | > 501 | > 501
107 | COC(=O)c1ccc(CCNC(=O)C2CCCO2)cc1 (configuration not stated) | 383 | 281
108 | N#Cc1ccc(OCC(=O)Nc2ccccn2)cc1 | > 501 | 247
109 | CCC(c1nnc(SCC(=O)NCC(C)C)o1)N(C)C (configuration not stated) | 192 | 217
110 | CCS(=O)(=O)N(C)CCCNc1ccc(Cl)cn1 | 163 | 129
111 | CN(Cc1ccccc1Br)C(=O)c1nccnc1N | > 501 | > 501
